We go through 4 compounds from patent US20220177538A1, “CO-AGONISTS AT GLP-1 AND GIP RECEPTORS SUITABLE FOR ORAL DELIVERY” (Novo Nordisk A/S, priority 2020, published 2022).

Experiment [1] has as its target T1, human GIP receptor (Homo sapiens, UniProt P48546).
T1 construct: expressed in transfected cells; host or cells: BHK (parent line BHKTS13), clone BHK CRE luc2P hGIPR
T1 sequence (P48546 22-466): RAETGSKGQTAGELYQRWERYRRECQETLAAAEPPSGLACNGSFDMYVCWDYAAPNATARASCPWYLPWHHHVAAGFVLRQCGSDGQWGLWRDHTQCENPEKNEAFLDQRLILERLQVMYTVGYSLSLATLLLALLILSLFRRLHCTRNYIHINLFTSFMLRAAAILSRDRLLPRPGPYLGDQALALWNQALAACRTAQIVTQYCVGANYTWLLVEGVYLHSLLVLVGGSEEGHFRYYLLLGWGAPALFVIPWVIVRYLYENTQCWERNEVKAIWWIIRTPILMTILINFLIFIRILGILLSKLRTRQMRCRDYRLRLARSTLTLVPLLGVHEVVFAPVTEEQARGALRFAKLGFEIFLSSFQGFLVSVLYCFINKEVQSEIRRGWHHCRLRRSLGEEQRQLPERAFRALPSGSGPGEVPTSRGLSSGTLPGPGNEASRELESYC
Description: In vitro functional potency, CRE luciferase reporter, whole BHK cells (hGIPR). As to conditions: BHK CRE luc2P hGIPR cells. The class given is cell-based. The protocol: (§1) The in vitro functional potency is the measure of target receptor activation in a whole cell assay.
(§2) In vitro functional potency was determined by measuring the response of the target receptor in a reporter gene assay in individual cell lines. […] When the respective receptor is activated, it results in the production of cAMP, which in turn results in expression of the luciferase protein. When assay incubation is completed, luciferase substrate (luciferin) is added resulting in the enzymatic conversion of luciferin to oxyluciferin and producing bioluminescence. The luminescence is measured as the readout for the assay.
(§3) The cells lines used in these assays were BHK cells with BHKTS13 as a parent cell line. The cell lines were derived from a clone containing the CRE luciferase element and were established by further transfection with the respective human receptor to obtain the relevant cell line: BHK CRE luc2P hGLP-1R or BHK CRE luc2P hGIPR. The cells were cultured at 37° C. with 5% CO2 in Cell Culture Medium. They were aliquoted and stored in liquid nitrogen. The cells were kept in continuous culture and were seeded out the day before each assay.
(§4) GLP-1R Cell Culture Medium consisted of DMEM medium with 10% FBS, 500 µg/mL G418, and 300 µg/mL hygromycin. GIPR Cell Culture Medium consisted of DMEM medium with 10% FBS, 400 µg/mL G418, and 300 µg/mL hygromycin. Assay Buffer consisted of DMEM w/o phenol red, 10 mM Hepes, 1× Glutamax. 1% ovalbumin, and 0.1% Pluronic F-68 with the addition of HSA at twice the final assay concentration.
(§5) 1) Cells were plated at 5000 cells/well and incubated overnight in the assay plate. 2) Cells were washed once in DPBS. 3) Stocks of the test compounds and reference compounds in concentrations ranging from […] were diluted 1:150 in Assay Buffer. Compounds were then diluted 1:10 in column 1 of a 96 deep well dilution plate and then carried across the row creating a 3.5 fold, 12 point dilution curve. 4) Assay Buffer (50 μl aliquot) with or without HSA was added to each well in the assay plate. 5) A 50 μl aliquot of compound or blank was transferred from the dilution plate to the assay plate containing the Assay Buffer with or without HSA. 6) The assay plate was incubated for 3 h in a 5% CO2 incubator at 37° C. 7) The cells were washed once with DPBS. 8) A 100 μl aliquot of DPBS was added to each well of the assay plate. 9) A 100 μl aliquot of steadylite plus reagent (light sensitive) was added to each well of the assay plate. 10) Each assay plate was covered with aluminum foil to protect it from light and shaken at 250 RPM for 30 min at room temperature. 11) Each assay plate was read in a microtiter plate reader.
(§6) The data from the microtiter plate reader was first regressed in an Excel in order to calculate the x-axis, log scale concentrations based on the individual test compound's stock concentration and the dilutions of the assay. […] The software performs a non-linear regression (log(agonist) vs response). A minimum of two replicates was measured for each sample. The reported values are averages of the replicates.

The target in experiment [2] is human GLP-1 receptor (Homo sapiens, UniProt P43220). As to the kind of experiment: In vitro functional potency, CRE luciferase reporter, whole BHK cells (hGLP-1R). Format: cell-based. More on the design: expressed in transfected cells; host or cells: BHK (parent line BHKTS13), clone BHK CRE luc2P hGLP-1R. The note with it: BHK CRE luc2P hGLP-1R cells. The protocol:
as §1, §2, §3, §4, §5, §6

Where [3] appears, read: hGIPR, CRE Luc 1% HSA EC50, 1% HSA.
Setting [4] is: hGLP-1R, CRE Luc 1% HSA EC50, 1% HSA.
Where [5] appears, read: 0% HSA, read-out: hGIPR, CRE Luc 0% HSA EC50.
The mark [6] stands for this setting: 0% HSA, read-out: hGLP-1R, CRE Luc 0% HSA EC50.

Where two headings read alike, the source gives them in different places. Starred links: 1 amine or outer side, 2 acyl side, 3 side chain; linkers in the order of their positions; H or OH if unused. Non-standard residues stand in square brackets, D forms with d. Residues, ends and D or L forms follow the SMILES beside them. Groups on a side chain read outwards from the residue. *: point of attachment. C18 diacid = O=C(O)CCCCCCCCCCCCCCCCC(=O)*; γGlu = O=C(O)[C@H](CCC(=O)[*:2])N[*:1]; εLys = N[C@@H](CCCCN[*:1])C(=O)[*:2]; Aib = CC(C)(N)C(=O)O

Sequence of human GLP-1 receptor (P43220 24-463): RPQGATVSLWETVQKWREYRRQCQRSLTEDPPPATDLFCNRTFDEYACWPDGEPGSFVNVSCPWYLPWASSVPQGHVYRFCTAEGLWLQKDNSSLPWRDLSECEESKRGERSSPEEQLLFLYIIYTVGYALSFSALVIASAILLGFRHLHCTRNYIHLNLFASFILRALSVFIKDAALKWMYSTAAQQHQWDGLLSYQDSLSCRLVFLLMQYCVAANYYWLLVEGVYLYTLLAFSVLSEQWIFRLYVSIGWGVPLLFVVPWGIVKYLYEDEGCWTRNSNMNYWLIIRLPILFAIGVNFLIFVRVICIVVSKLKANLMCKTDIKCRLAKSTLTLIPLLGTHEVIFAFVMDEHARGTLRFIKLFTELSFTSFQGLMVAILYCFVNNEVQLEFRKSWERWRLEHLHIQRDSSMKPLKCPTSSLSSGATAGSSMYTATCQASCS

In the case of `CC[C@H](C)[C@H](NC(=O)[C@H](Cc1ccccc1)NC(=O)[C@H](CCC(=O)O)NC(=O)[C@H](CCCNC(=N)N)NC(=O)[C@H](C)NC(=O)[C@H](C)NC(=O)[C@H](CCC(N)=O)NC(=O)[C@H](CCCCNC(=O)[C@@H](N)CCCCNC(=O)[C@@H](N)CCCCNC(=O)CC[C@H](NC(=O)CCCCCCCCCCCCCCCCC(=O)O)C(=O)O)NC(=O)[C@H](CCC(=O)O)NC(=O)[C@H](CC(C)C)NC(=O)[C@H](CC(C)C)NC(=O)[C@@H](NC(=O)[C@H](CO)NC(=O)[C@H](Cc1ccc(O)cc1)NC(=O)[C@H](CC(=O)O)NC(=O)[C@H](CO)NC(=O)[C@@H](NC(=O)[C@H](Cc1ccccc1)NC(=O)[C@@H](NC(=O)CNC(=O)[C@H](CCC(=O)O)NC(=O)C(C)(C)NC(=O)[C@@H](N)Cc1ccc(O)cc1)[C@@H](C)O)[C@@H](C)O)[C@@H](C)CC)C(=O)N[C@@H](CC(N)=O)C(=O)N[C@@H](Cc1c[nH]c2ccccc12)C(=O)N[C@@H](CC(C)C)C(=O)N[C@@H](CC(C)C)C(=O)N[C@@H](C)C(=O)NCC(=O)NCC(=O)N1CCC[C@H]1C(=O)N[C@@H](CO)C(=O)N[C@@H](CO)C(=O)NCC(=O)N[C@@H](C)C(=O)O` [Compound 21] (H-Y[Aib]EGTFTSDYSILLEK([εLys-εLys-γGlu-C18 diacid])QAAREFINWLLAGGPSSGA-OH), the 50% effective concentration (EC50) turned out to be 0.0054 nM in experiment [1] (hGIPR, CRE Luc 0% HSA EC50, 0% HSA); 0.131 nM in experiment [1] (setting [3]); 0.0057 nM in experiment [2] (hGLP-1R, CRE Luc 0% HSA EC50, 0% HSA); 0.118 nM in experiment [2] (setting [4]).
With `CC[C@H](C)[C@H](NC(=O)[C@H](Cc1ccccc1)NC(=O)[C@H](CCC(=O)O)NC(=O)[C@H](CCCNC(=N)N)NC(=O)[C@H](C)NC(=O)[C@H](C)NC(=O)[C@H](CCC(N)=O)NC(=O)[C@H](CCCCNC(=O)[C@@H](N)CCCCNC(=O)[C@@H](N)CCCCNC(=O)CC[C@H](NC(=O)CCCCCCCCCCCCCCCCC(=O)O)C(=O)O)NC(=O)[C@H](CCC(=O)O)NC(=O)[C@H](CC(C)C)NC(=O)[C@H](Cc1ccc(O)cc1)NC(=O)[C@@H](NC(=O)[C@H](CO)NC(=O)[C@H](Cc1ccc(O)cc1)NC(=O)[C@H](CC(=O)O)NC(=O)[C@H](CO)NC(=O)[C@@H](NC(=O)[C@H](Cc1ccccc1)NC(=O)[C@@H](NC(=O)CNC(=O)[C@H](CCC(=O)O)NC(=O)[C@H](C)NC(=O)[C@@H](N)Cc1ccc(O)cc1)[C@@H](C)O)[C@@H](C)O)[C@@H](C)CC)C(=O)N[C@@H](CC(N)=O)C(=O)N[C@@H](Cc1c[nH]c2ccccc12)C(=O)N[C@@H](CC(C)C)C(=O)N[C@@H](CC(C)C)C(=O)N[C@@H](C)C(=O)NCC(=O)NCC(=O)N1CCC[C@H]1C(=O)N[C@@H](CO)C(=O)N[C@@H](CO)C(=O)NCC(=O)N[C@@H](C)C(=O)N1CCC[C@H]1C(=O)N1CCC[C@H]1C(=O)N1CCC[C@H]1C(=O)N[C@@H](CO)C(=O)O` [Compound 17] (H-YAEGTFTSDYSIYLEK([εLys-εLys-γGlu-C18 diacid])QAAREFINWLLAGGPSSGAPPPS-OH), the concentration giving a half-maximal response (EC50) in experiment [1] (setting [5]) was determined as 0.0349 nM; in experiment [1] (setting [3]), 1.32 nM; in experiment [2] (setting [6]) it was 0.0052 nM; in experiment [2] (setting [4]), 0.257 nM.
The like results for `CC(C)C[C@H](NC(=O)[C@H](CC(C)C)NC(=O)[C@H](Cc1c[nH]c2ccccc12)NC(=O)[C@H](CC(N)=O)NC(=O)[C@@H](NC(=O)[C@H](Cc1ccccc1)NC(=O)[C@H](CCC(=O)O)NC(=O)[C@H](CCC(N)=O)NC(=O)[C@H](C)NC(=O)[C@H](C)NC(=O)[C@H](CCC(N)=O)NC(=O)[C@H](CCCCNC(=O)[C@@H](N)CCCCNC(=O)[C@@H](N)CCCCNC(=O)CC[C@H](NC(=O)CCCCCCCCCCCCCCCCC(=O)O)C(=O)O)NC(=O)[C@H](CCC(=O)O)NC(=O)[C@H](CC(C)C)NC(=O)[C@H](Cc1ccc(O)cc1)NC(=O)[C@H](Cc1ccc(O)cc1)NC(=O)[C@H](CO)NC(=O)[C@H](Cc1ccc(O)cc1)NC(=O)[C@H](CC(=O)O)NC(=O)[C@H](CO)NC(=O)[C@@H](NC(=O)[C@H](Cc1ccccc1)NC(=O)[C@@H](NC(=O)CNC(=O)[C@H](CCC(=O)O)NC(=O)C(C)(C)NC(=O)[C@@H](N)Cc1ccc(O)cc1)[C@@H](C)O)[C@@H](C)O)C(C)C)C(=O)N[C@@H](C)C(=O)NCC(=O)NCC(=O)N1CCC[C@H]1C(=O)N[C@@H](CO)C(=O)N[C@@H](CO)C(=O)NCC(=O)N[C@@H](C)C(=O)N1CCC[C@H]1C(=O)N1CCC[C@H]1C(=O)N1CCC[C@H]1C(=O)N[C@@H](CO)C(N)=O` [Compound 3] (H-Y[Aib]EGTFTSDYSYYLEK([εLys-εLys-γGlu-C18 diacid])QAAQEFVNWLLAGGPSSGAPPPS-NH2) were, in that order, 0.0069 nM, 0.229 nM, 0.0085 nM and 0.626 nM.
The like results for `CC[C@H](C)[C@H](NC(=O)[C@H](Cc1ccccc1)NC(=O)[C@H](CCC(=O)O)NC(=O)[C@H](CCCNC(=N)N)NC(=O)[C@H](C)NC(=O)[C@H](C)NC(=O)[C@H](CCC(N)=O)NC(=O)[C@H](CCCCNC(=O)[C@@H](N)CCCCNC(=O)[C@@H](N)CCCCNC(=O)CC[C@H](NC(=O)CCCCCCCCCCCCCCCCC(=O)O)C(=O)O)NC(=O)[C@H](CCC(=O)O)NC(=O)[C@H](CC(C)C)NC(=O)[C@H](CC(C)C)NC(=O)[C@@H](NC(=O)[C@H](CO)NC(=O)[C@H](Cc1ccc(O)cc1)NC(=O)[C@H](CC(=O)O)NC(=O)[C@H](CO)NC(=O)[C@@H](NC(=O)[C@H](Cc1ccccc1)NC(=O)[C@@H](NC(=O)CNC(=O)[C@H](CCC(=O)O)NC(=O)C(C)(C)NC(=O)[C@@H](N)Cc1ccc(O)cc1)[C@@H](C)O)[C@@H](C)O)[C@@H](C)CC)C(=O)N[C@@H](CCC(N)=O)C(=O)N[C@@H](Cc1c[nH]c2ccccc12)C(=O)N[C@@H](CC(C)C)C(=O)N[C@@H](CC(C)C)C(=O)N[C@@H](C)C(=O)NCC(=O)NCC(=O)N1CCC[C@H]1C(=O)N[C@@H](CO)C(=O)N[C@@H](CO)C(=O)NCC(=O)N[C@@H](C)C(=O)N1CCC[C@H]1C(=O)N1CCC[C@H]1C(=O)N1CCC[C@H]1C(=O)N[C@@H](CO)C(=O)O` [Compound 23] (H-Y[Aib]EGTFTSDYSILLEK([εLys-εLys-γGlu-C18 diacid])QAAREFIQWLLAGGPSSGAPPPS-OH) were, in that order, 0.0067 nM, 0.134 nM, 0.0041 nM and 0.118 nM.
